Results taken from patent US12398154B2, “Azaquinazoline pan-KRas inhibitors” (Mirati Therapeutics, Inc., priority 2020, dated 2025).

How the values were obtained:
KRas WT = KRas WT (Homo sapiens, UniProt P01116); experiment: biochemical;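 note: binding to KRas read as TR-FRET displacement after a one-hour room-temperature incubation, IC50 derived from percent-of-control values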
Experimental: (§1) The ability of a compound to bind to KRas was measured using a TR-FRET displacement assay. […] After a 60-minute incubation at room temperature, the reaction was measured using a BMG LABTECH CLARIO star Plus via TR-FRET. […] The POC values were fit to a 4-parameter IC50 equation and the IC50 value reported.

KRas Q61H = molecular target: T1, KRas Q61H (Homo sapiens, UniProt P01116, Q61H); experiment: KRas binding assay (TR-FRET displacement);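 note: TR-FRET signal read after one hour at room temperature, IC50 derived by four-parameter fitting of percent-of-control values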
T1 construct: Biotinylated KRas (corresponding to amino acids 1-169, produced at Accelegan Inc.); biotin (biotinylated); purchased Accelegan Inc
Experimental: as §1

KRas G12V = KRas G12V (Homo sapiens, UniProt P01116, G12V); experiment: biochemical;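 note: KRas binding measured by TR-FRET displacement at room temperature, IC50 fitted from percent of control values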
Experimental: as §1

KRas G12S = KRas G12S (Homo sapiens, UniProt P01116, G12S); experiment: biochemical;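 note: TR-FRET displacement binding to KRas, read after one hour incubation at room temperature, IC50 from four-parameter fit of percent of control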
Experimental: as §1

KRas G12D = KRas G12D (Homo sapiens, UniProt P01116, G12D); experiment: biochemical;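 note: TR-FRET displacement binding assay on KRas, read after a one-hour incubation at room temperature, IC50 fitted from percent-of-control values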
Experimental: as §1

KRas G13D = molecular target: T2, KRas G13D (Homo sapiens, UniProt P01116, G13D); experiment: KRas binding assay (TR-FRET displacement);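 note: One-hour room temperature incubation before TR-FRET reading, IC50 from a four-parameter curve fit to percent-of-control data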
T2 construct: Biotinylated KRas (corresponding to amino acids 1-169, produced at Accelegan Inc.); biotin (biotinylated); purchased Accelegan Inc
Experimental: as §1

KRas G12C = KRas G12C (Homo sapiens, UniProt P01116, G12C); experiment: biochemical;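 note: binding to KRas assessed by TR-FRET displacement after one hour incubation at room temperature, potency fitted from percent-of-control values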
Experimental: as §1

KRas G12R = KRas G12R (Homo sapiens, UniProt P01116, G12R); experiment: biochemical;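 note: TR-FRET displacement assay of compound binding to KRas, read after one hour at room temperature, potency from a four-parameter fit of percent-of-control values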
Experimental: as §1

KRas G12A = KRas G12A (Homo sapiens, UniProt P01116, G12A); experiment: biochemical;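 note: binding to KRas measured by TR-FRET displacement after one hour at room temperature, IC50 from a four-parameter fit of percent-of-control values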
Experimental: as §1

pERK in HCT116 cells = experiment: Inhibition of KRas phosphorylation of ERK (Cisbio HTRF pERK assay); details: Homo sapiens, HCT-116, read-out: Inhibition (HTRF IC50) of KRas-mediated Phosphorylation of ERK, HCT116
pERK in H727 cells = experiment: as above; details: Homo sapiens, NCI-H727, read-out: Inhibition (HTRF IC50) of KRas-mediated Phosphorylation of ERK, H727
pERK in ASPC1 cells = experiment: as above; details: Homo sapiens, ASPC1, read-out: Inhibition (HTRF IC50) of KRas-mediated Phosphorylation of ERK, AsPC-1
pERK in PSN1 cells = experiment: as above; details: Homo sapiens, PSN1, 3 h, read-out: Inhibition (HTRF IC50) of KRas-mediated Phosphorylation of ERK, PSN1
pERK in MKN1 cells = experiment: as above; details: Homo sapiens, MKN-1, 3 h, read-out: Inhibition (HTRF IC50) of KRas-mediated Phosphorylation of ERK, MKN1

Sequence of KRas G12A (P01116 1-169 isoform P01116-2 G12A): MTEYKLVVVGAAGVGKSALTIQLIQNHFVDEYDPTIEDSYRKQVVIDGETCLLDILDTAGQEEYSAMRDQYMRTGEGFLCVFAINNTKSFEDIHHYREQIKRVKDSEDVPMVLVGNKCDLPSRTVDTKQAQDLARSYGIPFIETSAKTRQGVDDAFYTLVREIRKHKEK
Sequence of KRas G12D (P01116 1-169 isoform P01116-2 G12D): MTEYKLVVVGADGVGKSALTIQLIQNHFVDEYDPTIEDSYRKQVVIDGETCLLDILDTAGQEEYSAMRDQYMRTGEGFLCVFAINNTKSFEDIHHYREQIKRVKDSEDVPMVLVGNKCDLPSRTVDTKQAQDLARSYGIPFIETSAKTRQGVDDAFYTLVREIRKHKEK
Sequence of KRas G12R (P01116 1-169 isoform P01116-2 G12R): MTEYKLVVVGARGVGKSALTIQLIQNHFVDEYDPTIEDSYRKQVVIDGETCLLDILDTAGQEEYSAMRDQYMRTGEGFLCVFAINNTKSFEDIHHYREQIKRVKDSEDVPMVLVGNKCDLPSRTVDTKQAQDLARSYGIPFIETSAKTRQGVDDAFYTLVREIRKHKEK
Sequence of KRas G12S (P01116 1-169 isoform P01116-2 G12S): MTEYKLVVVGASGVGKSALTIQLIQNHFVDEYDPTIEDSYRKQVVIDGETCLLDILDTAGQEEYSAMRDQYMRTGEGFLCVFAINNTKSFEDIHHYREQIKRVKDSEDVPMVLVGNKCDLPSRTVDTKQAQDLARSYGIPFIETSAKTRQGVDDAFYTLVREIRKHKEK
Sequence of KRas G12V (P01116 1-169 isoform P01116-2 G12V): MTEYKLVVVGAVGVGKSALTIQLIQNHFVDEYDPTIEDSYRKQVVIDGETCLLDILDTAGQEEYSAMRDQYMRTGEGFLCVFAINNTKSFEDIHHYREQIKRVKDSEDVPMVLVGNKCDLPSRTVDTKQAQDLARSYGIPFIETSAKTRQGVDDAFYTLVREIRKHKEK
Sequence of KRas G12C (P01116 1-169 isoform P01116-2 G12C): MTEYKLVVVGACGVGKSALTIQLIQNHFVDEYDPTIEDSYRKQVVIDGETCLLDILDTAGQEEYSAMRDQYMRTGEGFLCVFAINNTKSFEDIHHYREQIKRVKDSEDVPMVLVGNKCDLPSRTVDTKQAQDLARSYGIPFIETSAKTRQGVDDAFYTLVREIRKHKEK
T1 sequence (P01116 1-169 isoform P01116-2 Q61H): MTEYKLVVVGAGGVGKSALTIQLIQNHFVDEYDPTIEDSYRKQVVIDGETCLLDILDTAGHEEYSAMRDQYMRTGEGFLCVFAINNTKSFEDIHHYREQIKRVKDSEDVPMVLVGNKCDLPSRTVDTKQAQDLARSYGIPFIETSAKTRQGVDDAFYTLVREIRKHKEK
T2 sequence (P01116 1-169 isoform P01116-2 G13D): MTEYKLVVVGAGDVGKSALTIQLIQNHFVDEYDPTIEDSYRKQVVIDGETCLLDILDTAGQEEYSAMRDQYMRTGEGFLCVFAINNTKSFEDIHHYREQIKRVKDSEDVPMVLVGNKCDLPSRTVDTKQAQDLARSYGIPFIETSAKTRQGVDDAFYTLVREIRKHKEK
Sequence of KRas WT (P01116 1-169 isoform P01116-2): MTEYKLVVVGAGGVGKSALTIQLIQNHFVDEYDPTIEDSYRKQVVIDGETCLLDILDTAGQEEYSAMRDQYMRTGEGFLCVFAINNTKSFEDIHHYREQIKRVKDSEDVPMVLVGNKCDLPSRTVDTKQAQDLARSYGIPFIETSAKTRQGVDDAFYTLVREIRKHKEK

Structure (SMILES) | IC50 (KRas WT) [µM] | IC50 (KRas Q61H) [nM] | IC50 (KRas G12V) [µM] | IC50 (KRas G12S) [µM] | IC50 (KRas G12D) [µM] | IC50 (KRas G13D) [nM] | IC50 (KRas G12C) [µM] | IC50 (KRas G12R) [µM] | IC50 (KRas G12A) [µM] | IC50 (pERK in HCT116 cells) [µM] | IC50 (pERK in H727 cells) [µM] | IC50 (pERK in ASPC1 cells) [µM] | IC50 (pERK in PSN1 cells) [µM] | IC50 (pERK in MKN1 cells) [µM]
CCc1c(F)ccc2cc(O)cc(-c3ncc4c(NCc5c[nH]c6ncccc56)nc(OC[C@@]56CCCN5C[C@H](F)C6)nc4c3F)c12 [Example 62, 4-(4-(((1H-pyrrolo[2,3-b]pyridin-3-yl)methyl)amino)-8-fluoro-2-(((2R,7aS)-2-fluorohexahydro-1H-pyrrolizin-7a-yl)methoxy)pyrido[4,3-d]pyrimidin-7-yl)-5-ethyl-6-fluoronaphthalen-2-ol] |  | ≤ 2 | ≤ 0.002 |  | 0.003 | 3 |  | ≤ 0.002 |  |  |  |  |  | 
O=C1CC(CNc2nc(OCC34CCCN3CCC4)nc3c(F)c(-c4cccc5cccc(F)c45)ncc23)CN1 (centres unmarked) [Example 29, 4-(((8-fluoro-7-(8-fluoronaphthalen-1-yl)-2-((hexahydro-1H-pyrrolizin-7a-yl)methoxy)pyrido[4,3-d]pyrimidin-4-yl)amino)methyl)pyrrolidin-2-one] | 5.84 | 13900 | 1.96 | 3.11 | 20.5 | 8190 | 4.32 | 4.38 | 6.2 |  |  |  |  | 
Fc1c(-c2cccc3cccc(Cl)c23)ncc2c(N3CCCC3c3cn[nH]c3)nc(OCC34CCCN3CCC4)nc12 (centres unmarked) [Example 104, 4-(2-(1H-pyrazol-4-yl)pyrrolidin-1-yl)-7-(8-chloronaphthalen-1-yl)-8-fluoro-2-((tetrahydro-1H-pyrrolizin-7a(5H)-yl)methoxy)pyrido[4,3-d]pyrimidine] | 2.33 | 3210 | 2.87 | 2.02 | 7.61 | 3640 | 2.3 | 2.82 | 1.74 |  |  |  |  | 
CCc1c(F)ccc2cc(O)cc(-c3ncc4c(N5CCC[C@]6(C5)NC(=O)NC6=O)nc(OCC5(CN6CCCC6)CC5)nc4c3F)c12 [Example 322, (R)-7-(7-(8-ethyl-7-fluoro-3-hydroxynaphthalen-1-yl)-8-fluoro-2-((1-(pyrrolidin-1-ylmethyl)cyclopropyl)methoxy)pyrido[4,3-d]pyrimidin-4-yl)-1,3,7-triazaspiro[4.5]decane-2,4-dione] | ≤ 0.002 |  | ≤ 0.002 |  | ≤ 0.002 |  | ≤ 0.002 | ≤ 0.002 |  | 0.3 | 0.255 | 0.484 | 9.09 | 0.032
C#Cc1c(F)ccc2cc(O)cc(-c3ncc4c(N5CC6C(=O)NC(=O)C6C5)nc(OC[C@@]56CCCN5C[C@H](F)C6)nc4c3F)c12 (stereo partly drawn) [Example 389, 5-(7-(8-ethynyl-7-fluoro-3-hydroxynaphthalen-1-yl)-8-fluoro-2-(((2R,7aS)-2-fluorohexahydro-1H-pyrrolizin-7a-yl)methoxy)pyrido[4,3-d]pyrimidin-4-yl)tetrahydropyrrolo[3,4-c]pyrrole-1,3(2H,3aH)-dione] | ≤ 0.002 |  | ≤ 0.002 | ≤ 0.002 | ≤ 0.002 |  | ≤ 0.002 | 0.003 | ≤ 0.002 | 1.09 | 0.97 | 0.268 | ≥ 10 | 0.095
CCc1c(F)ccc2cc(O)cc(-c3ncc4c(N5CCC[C@]6(CC(=O)N6)C5)nc(OCC5(CN6CCCC6)CC5)nc4c3F)c12 [Example 319, (S)-6-(7-(8-ethyl-7-fluoro-3-hydroxynaphthalen-1-yl)-8-fluoro-2-((1-(pyrrolidin-1-ylmethyl)cyclopropyl)methoxy)pyrido[4,3-d]pyrimidin-4-yl)-1,6-diazaspiro[3.5]nonan-2-one] | ≤ 0.002 |  | ≤ 0.002 | ≤ 0.002 | ≤ 0.002 |  | ≤ 0.002 | ≤ 0.002 | ≤ 0.002 | 6.36 | 0.808 | 0.433 | ≥ 10 | 0.12
CC1(CNc2nc(OCC34CCCN3CCC4)nc3c(F)c(-c4cccc5cccc(F)c45)ncc23)CNC(=O)C1 (centres unmarked) [Example 35, 4-(((8-fluoro-7-(8-fluoronaphthalen-1-yl)-2-((hexahydro-1H-pyrrolizin-7a-yl)methoxy)pyrido[4,3-d]pyrimidin-4-yl)amino)methyl)-4-methylpyrrolidin-2-one] |  | 4010 | 2.52 |  | 12.1 | 1660 |  | 1.61 |  |  |  |  |  | 
CCc1c(F)ccc2cc(O)cc(-c3ncc4c(NCc5n[nH]cc5C)nc(OC[C@@]56CCCN5C[C@H](F)C6)nc4c3F)c12 [Example 161, 5-ethyl-6-fluoro-4-(8-fluoro-2-(((2R,7aS)-2-fluorohexahydro-1H-pyrrolizin-7a-yl)methoxy)-4-(((4-methyl-1H-pyrmzol-3-yl)methyl)amino)pyrido[4,3-d]pyrimidin-7-yl)naphthalen-2-ol] | 0.02 | 17 | 0.007 | 0.015 | 0.068 | 16 | 0.007 | 0.009 |  |  |  |  |  | 

The remaining lines, values ahead:

IC50 (KRas WT) [µM] | IC50 (KRas Q61H) [nM] | IC50 (KRas G12V) [µM] | IC50 (KRas G12S) [µM] | IC50 (KRas G12D) [µM] | IC50 (KRas G13D) [nM] | IC50 (KRas G12C) [µM] | IC50 (KRas G12R) [µM] | IC50 (KRas G12A) [µM] | IC50 (pERK in HCT116 cells) [µM] | IC50 (pERK in H727 cells) [µM] | IC50 (pERK in ASPC1 cells) [µM] | IC50 (pERK in PSN1 cells) [µM] | IC50 (pERK in MKN1 cells) [µM] | Structure (SMILES)
6 | 7720 | 4.35 | 3.59 | 67.3 | 14100 | 2.41 | 4.08 | 3.03 |  |  |  |  |  | Fc1c(-c2cccc3cccc(F)c23)ncc2c(N3CC(n4cncn4)C3)nc(OCC34CCCN3CCC4)nc12 [Example 253, 4-(3-(1H-1,2,4-triazol-1-yl)azetidin-1-yl)-8-fluoro-7-(8-fluoronaphthalen-1-yl)-2-((hexahydro-1H-pyrrolizin-7a-yl)methoxy)pyrido[4,3-d]pyrimidine]
34.1 | ≥ 100000 | ≥ 100 | 85.3 | ≥ 100 | ≥ 100000 | 19.8 | ≥ 100 | 33.3 |  |  |  |  |  | Oc1cccc2c1CN(c1nc(OCC34CCCN3CCC4)nc3c(F)c(-c4cccc5cccc(F)c45)ncc13)C2 [Example 120, 2-(8-fluoro-7-(8-fluoronaphthalen-1-yl)-2-((tetrahydro-1H-pyrrolizin-7a(5H)-yl)methoxy)pyrido[4,3-d]pyrimidin-4-yl)isoindolin-4-ol]
9.86 | 8240 | 11.1 | 11 | 32 | 5680 | 6.57 | 10.1 | 9.15 |  |  |  |  |  | OCC1CN(c2nc(OCC34CCCN3CCC4)nc3c(F)c(-c4cccc5cccc(F)c45)ncc23)CCC1O (centres unmarked) [Example 117, 1-(8-fluoro-7-(8-fluoronaphthalen-1-yl)-2-((tetrahydro-1H-pyrrolizin-7a(5H)-yl)methoxy)pyrido[4,3-d]pyrimidin-4-yl)-3-(hydroxymethyl)piperidin-4-ol]
0.478 | 498 | 1.55 | 0.492 | 1.14 | 350 | 0.597 | 0.777 | 0.586 |  |  |  |  |  | NS(=O)(=O)NC1CCCN(c2nc(OCC34CCCN3CCC4)nc3c(F)c(-c4cccc5cccc(F)c45)ncc23)C1 (centres unmarked) [Example 240, 8-fluoro-7-(8-fluoronaphthalen-1-yl)-2-(1,2,3,5,6,7-hexahydropyrrolizin-8-ylmethoxy)-4-[3-(sulfamoylamino)piperidin-1-yl]pyrido[4,3-d]pyrimidine]
 | 18500 | 24 |  | 14.1 | 8790 |  | 22.5 |  |  |  |  |  |  | O=C1CCC2(CCCN(c3nc(OCC45CCCN4CCC5)nc4c(F)c(-c5cccc6cccc(F)c56)ncc34)C2)C1 (centres unmarked) [Example 46, 7-(8-fluoro-7-(8-fluoronaphthalen-1-yl)-2-((hexahydro-1H-pyrrolizin-7a-yl)methoxy)pyrido[4,3-d]pyrimidin-4-yl)-7-azaspiro[4.5]decan-2-one]
 | 19900 | 20.4 |  | 18.4 | 16000 |  | 24.1 |  |  |  |  |  |  | Fc1c(-c2cccc3cccc(F)c23)ncc2c(N3CCCC4(CCC(F)C4)C3)nc(OCC34CCCN3CCC4)nc12 (centres unmarked) [Example 48, 8-fluoro-4-(2-fluoro-7-azaspiro[4.5]decan-7-yl)-7-(8-fluoronaphthalen-1-yl)-2-((hexahydro-1H-pyrrolizin-7a-yl)methoxy)pyrido[4,3-d]pyrimidine]
